Laboratory results taken from patent publication US20100216875A1, “METHODS OF TREATING ALZHEIMER'S DISEASE” (priority 2006, published 2010).

Tests used:
[1] = tested on: brain and synaptosomal Aβ; test: guinea pig brain and synaptosome Aβ by ELISA after icv infusion; assay type: in vivo; details: icv 0.15 mg/kg/day
Excerpt: Guinea pig (gp) is a natural, non-transgenic model of human APP processing gpAPP is 98% homologous to human APP, contains the human wild-type β-secretase site, and gpAβ is identical to human Aβ. Brain synaptosome preparations are enriched with neuronal synapses which are the sites at which regulated secretion occurs and are an in vivo measure of regulated secretory secretion CTFβ is an APP fragment that results from p-secretase cleavage of APP and reflects in vivo β-secretase activity. […] E64d was icy administered into gp brains (0.15 mg/kg/day) for 7 or 30 days. […] In FIG. 5b, total synaptosomal Aβ is shown.
CA074Me (0.15 mg/kg/day) was icy infused into gp brains with mini pumps. […] An equal reduction of Aβ40 and Aβ42 is consistent with the inhibitor affecting p-secretase activity
At the end of the treatment, the brains were isolated and extracted with guanidine hydrochloride and Aβ40 and Aβ42 levels were determined using ELISA.
Cathepsin B inhibitors were administered directly into the brain by icy infusion with minipumps in time course studies at different doses. Guinea pigs were infused with compounds using Alzet pumps (2.5 μl/hr, with compounds at 1 mg/ml in saline) for 7 and 30 days, and other times. This initial dose of compound was selected because E64d and CA074Me are effective at this dose. Each treatment group consisted of eight to ten guinea pigs, including the vehicle control group.
At the end of each experiment, animals were sacrificed and half the brain was taken for ELISA measurement of Aβ40 and Aβ42 levels. The other half was isolated for synaptosome preparations for ELISA measurement of Aβ40 and Aβ42 content in nerve terminals. Synaptosomes were prepared by homogenization in isotonic sucrose (320 mM), pH 7.4, 1 mM EDTA, 0.25 mM dithiothreitol, and 30 U/MI RNAse inhibitor. The homogenate was centrifuged at 1000×g for 10 minutes. The supernatant was loaded on a Sucrose-Percoll discontinuous gradient and centrifuged at 32,000×g for 5 minutes (80) Enriched synaptosomes were washed in PBS, and centrifuged at 12,000×g for 4 minutes. The supernatant was removed, and the synaptosome containing pellet was resuspended in 50% OptiPrep (Accurate Chemica. Westbury, N.Y.), loaded on an OptiPrep discontinuous flotation gradient (9, 12.5, 25, and 35%) and centrifuged at 10,000×g for 20 minutes. The synaptosomes were obtained at the […]
For quantitative analysis of Aβ peptides, an enzyme-linked immunosorbent assay (ELISA) was used to measure the levels of total Aβ, Aβtotal, Aβ40 and Aβ42 in the brains and synaptosomes of guinea pigs (Biosource International, Camarillo, Calif.) Aβtotal, Aβ40, Aβ42 was extracted from guinea pig brains or from synaptosomes by guanidine hydrochloride and quantified as described by the manufacturer. This assay extracted the total Aβ peptide from the brain (both soluble and aggregated). Tissue samples were homogenized in 5M guanidine buffer (5M guanidine HCl in 50 mM Tris-Cl, pH 8.3; Sigma-Aldrich, St. Louis, Mo.) at 1:10 w/v dilution. Homogenates were agitated at room temperature for 3-4 hours, then stored at −20° C. The day before running the ELISA, the tissue samples were diluted further 1:10 to provide a final guanidine concentration of 0.5M. These diluted homogenates were spun down at 14,000 rpm for 20 minutes at 4° C. and supernatants used for Aβ determination by ELISA (84-86). Brain and synaptosome extracts were assayed as diluted in 0.5M guanidine. In addition, Aβ40 and Aβ42 were assayed using ELISA using 6E10 as the capture antibody and Rb209 and Rb321 as reporter antibodies, respectively, for Aβ40 and Aβ42 (96).

[2] = tested on: transgenic APPIn mice (London mutant human APP); test: brain Aβ and amyloid plaque load in transgenic APPIn mice; assay type: in vivo, mouse; details: icv 0.015 mg/kg/day, 28 days; for reduction of amyloid plaque load: cortex
Protocol: Transgenic mice expressing human APP containing the London mutation (APPIn) mimic AD function and pathology in that they are cognitively deficient, have brain amyloid plaque and elevated Aβ (8). […] CA074Me or E64d were administered by icy infusion in brains (0.015 mg/kg/day) for 28 days (8 animals per treatment group).
APPIn mice express the clinical mutant human APP (APP[V717I]) which has a mutation at the γ-secretase site that results in the overproduction of Aβ and the behavioral and neuropathology that develop an AD phenotype (8). These mice show early stage deficits in cognition and memory at 3-9 months age. At the later age of 8-12 months, amyloid plaques have developed in brains of these mice, with increased levels of Aβ40 and Aβ42 peptides in the brain. […] Thus, this AD mouse model allows testing of select reversible compounds to improve cognition and to reduce brain levels of Aβ peptides and amyloid plaques.
Direct icy infusion into the brain was the first route of administration to be tested to establish the effectiveness of reversible inhibitors in the brain to provide cognitive improvement, and reduction in brain Aβ peptides and amyloid plaques. Icy infusion was performed as described above for the irreversible inhibitors with use of the Alzet minipump. The initial dose utilized was the same dosage used for E64d and CA074Me in the APPIn mice or APPswe/In mice Administration of these compounds began at approximately 1-2 months of age and infusion was conducted for periods of 1, 2, 4, and 8 months (or other time periods). Administration of the select reversible compounds by direct icy infusion into mouse brains was conducted initially at 0.025 μl/hr of 1 mg/ml, other doses may be examined based on results with the first dose. Each time point was conducted with about 8-10 animals and 8-10 normal control animals (age-matched) (or greater number of mice per treatment group, if necessary, for appropriate statistical evaluation). At the end of each of these infusion periods, cognitive testing and assessment of Aβ peptide levels with plaque pathology was evaluated. At each of these time points, mice were tested for cognition, and then sacrificed for evaluation of Aβ and neuropathology in the brain
After behavioral testing was completed, the mice were sacrificed for analyses of Aβ40 and Aβ42 peptide levels, and neuropathology. One half brain (one hemisphere) was utilized to prepare brain extracts for measurement of Aβ40 and Aβ42 levels by ELISA assays, and the other half brain was used for neuropathological evaluation. Procedures for preparation of brain extracts and ELISA assays for Aβ peptides are those used for analyses of guinea pig brains
Aβ-related neuropathology was assessed in cortex and hippocampus of brains. The relative extent of Aβ immunoreactivity in neurons and glial cells was assessed. Immunostaining for Aβ was conducted as described previously (58) Aβ-related neuropathology was assessed in cortex and hippocampus of brains, as well as other regions of the brain as controls. Brain tissue was fixed in 4% paraformaldehyde overnight, and then processed to paraffin. Serial sections were obtained, deparaffinized and washed in TBS buffer. Each section was blocked with appropriate normal serum (mouse or rabbit), and subjected to primary anti-Aβ antibody for detection of amyloid deposits. Sections were then stained with DAB ([…]) with the Vector ABC Elite kit (Vector Laboratories). Amyloid areas were imaged with microscopic computer-assisted analysis system using the NIH Image Analysis Software.

## CCCNC(=O)[C@H]1O[C@@H]1C(=O)N[C@H](C(=O)N1CCC[C@H]1C(=O)OC)[C@@H](C)CC [CA074Me]
[1]; 7 days
  reduction of Aβ40 in brain extracts: 50%
  reduction of Aβ42 in brain extracts: 50%
  reduction of total Aβ in brain extracts: 50%
  reduction of total synaptosomal Aβ: 45%
[1]; 30 days
  reduction of Aβ40 in brain extracts: 50%
  reduction of Aβ42 in brain extracts: 50%
  reduction of total Aβ in brain extracts: 60%
  reduction of total synaptosomal Aβ: 50%
[1]; duration not stated
  reduction of Aβ40 in the brain: 50-60%
  reduction of Aβ42 in the brain: 50-60%
[2]
  decrease in brain Aβ40: 50%
  decrease in brain Aβ42: 50%
  reduction of amyloid plaque load: significantly reduce amyloid load

## CCOC(=O)[C@H]1O[C@@H]1C(=O)N[C@@H](CC(C)C)C(=O)NCCC(C)C [E64d]
[1]; 7 days
  reduction of total Aβ in brain extracts: 30%
  reduction of total synaptosomal Aβ: 27%
[1]; 30 days
  reduction of total Aβ in brain extracts: 50%
  reduction of total synaptosomal Aβ: 50%
[1]; duration not stated
  reduction of brain Aβ: 50%
[2]
  decrease in brain Aβ40: 50%
  decrease in brain Aβ42: 50%
  reduction of amyloid plaque load: significantly reduce amyloid load
